This test addresses T1, aSyn fibril growth (in vitro aSyn fibrils) (Homo sapiens, UniProt P37840).
T1 construct: made in house; host or cells: E. coli BL21-CodonPlus (DE3)-RIL, pRK172 plasmid
The test can be described thus: FlAsH fluorescence fibril growth assay with in vitro assembled aSyn fibril seeds. In kind it is biochemical. An excerpt:
Inhibition of fibril growth by small molecule compounds is likely to be mediated primarily by binding interactions with either monomer, fibrils, or both. However, secondary nucleation may occur and contribute to fibril growth under some conditions, and compounds may affect growth through interaction with oligomeric intermediates to inhibit conversion to fibrils. In one proposed mechanism, a compound binds to the end surface of fibrils and interferes with the binding of the new monomer required to extend the seed or fibril (FIG. 1). Since binding will deplete the free concentration of the inhibitor, measured IC50 values will be proportional to the concentration of the binding target (fibril seeds) and proportional to the concentration of monomer, with which the inhibitor competes for binding.
The fibril growth assay was performed similarly to previously published methods. […] Maximum inhibition is calculated as (Intensity100μM−Intensity0μM)/Intensity0μM×100% where Intensity100μM and Intensity0μM is the intensity at 100 μM of compound and intensity with no compound in the presence of fibrils and monomers.

For `CCOC(=O)C1CCN(Cc2cc(OC)c(O)c(OC)c2)CC1` [Compound 1, ethyl 1-[(4-hydroxy-3,5-dimethoxyphenyl)methyl]piperidine-4-carboxylate], for the setting “at 100 μM compound versus no compound, read-out: Max Inhibition [%] [mean ± std]”, the inhibition (commonly how much of the control response was suppressed) at 100 µM worked out at 79%. The IC50 (as a rule, the concentration that gives 50% inhibition) (read-out: IC50 [95% Cl] [μM] [mean ± std], 1 μM fibril seeds, 3 μM C2-aSyn monomer, 3-hour incubation) was 18 µM.

The values above are taken from US20260034121A1, “COMPOSITIONS AND METHODS FOR ALPHA-SYNUCLEIN FIBRIL GROWTH INHIBITION” (Washington University, priority 2024, published 2026).
